Measurements as given in ChEMBL document CHEMBL5727772, “Substituted 3,4,5,6,8,10,14,14a-octahydro-2h-2,6-methanopyrido[1′,2′:4,5]pyrazino[2,1-b][1,3]oxazocines and methods for treating viral infections” (2020).

Experiment: 24 hours prior to assay, media containing 5 mM sodium butyrate were added to MDCKII cells in flasks, and cells were grown to 80-90% confluence. On assay day, cells were trypsinized and resuspended in Krebs-Henseleit Buffer (KHB), pH 7.4 at 5×10^6 […] cells/mL. Cells were preincubated for 15 min in assay plate before addition of test compound or substrate.Test compounds were serially diluted in DMSO and then spiked (2 μL) into in 0.4 mL KHB buffer containing wild-type or OCT2-transfected cells and incubated for 10 minutes. Assay was initiated with the addition of 0.1 mL of 100 μM 14C-TEA in KHB buffer (20 μM final concentration after mixing). The concentration of TEA is based on the Km. After 10 minutes of incubation, the assay mixture was quenched with addition of 0.5 mL of ice-cold 1×PBS buffer. Samples were then centrifuged at 1000 rpm for 5 min and supernatants were removed. Wash steps were repeated four times with ice-cold PBS. Finally, the cell pellets were lysed with 0.2N NaOH and let sit at room temperature for at least 30 min to ensure complete lysis.
Details: MDCK-II

`C[C@@H](NC(=O)c1cn2c(c(O)c1=O)C(=O)N1C(C2)O[C@@H]2CC[C@@H]1C2)c1ccc(F)cc1F` (stereo partly drawn) gave an IC50 of 610 nM.
For `O=C(NCc1c(F)cc(F)cc1F)c1cn2c(c(O)c1=O)C(=O)N1C3CCC(C3)O[C@H]1C2` (stereo partly drawn), the IC50 was 137 nM.
`O=C(NCc1cc(F)ccc1F)c1cn2c(cc1=O)C(=O)N1C3CCC(C3)C1C2` (stereo not drawn) showed an IC50 of 450 nM.
